Experimental data: US10945995B2, “Compositions and methods for channelopathy disorders-targeting fluid movement across membranes” (DEHA, LLC, priority 2017, dated 2021)
Each block holds one compound with its values, some of them ahead of it.

Experiments:
AQP-4 [1] = settings: rat model of epilepsy; cited from earlier work
[2] = system: rat traumatic brain injury model; settings: cited from earlier work
AQP-11 = molecular target: T1, AQP-11 (Homo sapiens, UniProt Q8NBQ7); assay: Kinetic screening assay, cells overexpressing AQP-11; type: cell-based
T1 construct: expressed in transfected cells
T1 sequence (Q8NBQ7 1-271): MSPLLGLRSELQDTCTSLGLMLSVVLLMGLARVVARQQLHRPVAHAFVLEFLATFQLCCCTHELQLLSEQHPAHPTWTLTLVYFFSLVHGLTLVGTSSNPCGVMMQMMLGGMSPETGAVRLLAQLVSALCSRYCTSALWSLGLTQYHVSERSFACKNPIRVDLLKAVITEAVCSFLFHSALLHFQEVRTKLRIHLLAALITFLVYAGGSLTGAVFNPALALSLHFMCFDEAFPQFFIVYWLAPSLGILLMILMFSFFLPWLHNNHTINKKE

AQP-2 = molecular target: T2, AQP-2 (Homo sapiens, UniProt P41181); assay: Kinetic screening assay, cells overexpressing AQP-2; type: cell-based
T2 construct: expressed in transfected cells
T2 sequence (P41181 1-271): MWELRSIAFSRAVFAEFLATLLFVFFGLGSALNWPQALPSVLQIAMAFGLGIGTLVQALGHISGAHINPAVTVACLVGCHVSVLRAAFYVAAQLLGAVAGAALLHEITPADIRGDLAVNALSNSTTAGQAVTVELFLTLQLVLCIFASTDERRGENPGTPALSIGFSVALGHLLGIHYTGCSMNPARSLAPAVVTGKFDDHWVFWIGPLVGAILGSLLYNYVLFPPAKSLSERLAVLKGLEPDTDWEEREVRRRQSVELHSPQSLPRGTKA
Source text: Effects of candidate AQP-4 inhibitors on cell swelling in vitro. Kinetic screening assay: In order to assess the effects of the resulting 50 compounds selected from in silico screening efforts on cell swelling, a calcein-fluorescence assay that measures plasma membrane water permeability was used. Alvarez-Leefmans et al. established a technique to estimate changes in cell volume as a function of changes in concentration using a calcein-AM, a non-fluorescent and membrane-permeant dye.^53 After entering the cell, calcein-AM is converted to calcein by removal of the acetoxymethyl group (AM) by intracellular esterases. […] The fluorescence signal is calibrated by brief exposures of the calcein-loaded cells to, for example, 15% hypotonic and 15% hypertonic solutions and the average signal intensity from the cell is detected. […] The test compounds were then added (4-9 μM) and the fluorescence was measured using a Biotek plate reader (excitation 490 nm and emission 515 nm). Relative fluorescence intensity (RfU) was calculated as the fluorescence intensity of each well divided by the mean fluorescence intensity of cells treated with DMSO (control). […]
AQP-2 DHA-35. Using the kinetic screening assay described hereinabove, cells overexpressing AQP-2 were screened with test compounds of interest and their fluorescence signal were evaluated. […]

AQP-6 = molecular target: T3, AQP-6 (Homo sapiens, UniProt Q13520); assay: Kinetic screening assay, cells overexpressing AQP-6; type: cell-based
T3 construct: expressed in transfected cells
T3 sequence (Q13520 1-282): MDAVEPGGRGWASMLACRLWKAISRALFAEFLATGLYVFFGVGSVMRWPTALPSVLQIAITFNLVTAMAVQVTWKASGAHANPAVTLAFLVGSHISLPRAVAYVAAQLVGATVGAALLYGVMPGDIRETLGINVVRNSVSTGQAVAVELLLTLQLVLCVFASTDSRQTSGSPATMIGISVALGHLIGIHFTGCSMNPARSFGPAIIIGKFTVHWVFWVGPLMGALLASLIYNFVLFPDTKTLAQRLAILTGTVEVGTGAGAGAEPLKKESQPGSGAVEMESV

AQP-4 [3] = settings: pre-treatment, mouse model of stroke; cited from earlier work

AQP-2 activity, fluorescence signal (AQP-2): inhibitor
Compound: CSc1ccc(C(=O)NC(c2ccc3c(c2)CCO3)[C@H]2C[C@@H](O)C2)cc1 (stereo partly shown) [DHA-35]

AQP-11 activity, fluorescence signal (AQP-11): modulators
Compound: Cc1onc(-c2ccccc2)c1C(=O)NCc1nnc(SCc2ccccc2Cl)n1CC(C)C [DHA-37]

Continued, compound first:

Compound: CC(=O)Nc1nnc(S(N)(=O)=O)s1 [Acetazolamide, acetazolamide]
AQP-4 inhibition in vivo (AQP-4 [1]): inhibit AQP-4
edema [2]: reduce edema

Compound: C=CCn1nc(C(=O)N2CCCCCC2)c2c1CCC(NCCCN1CCCC1=O)C2 (stereo not shown) [DHA-6]
AQP-11 activity, fluorescence signal (AQP-11): modulators

Compound: COCC(C)n1c(CCCC(=O)N2CCC3(CC2)CNC(=O)C3)nc2cccnc21 (stereo not shown) [DHA-36]
AQP-6 activity, fluorescence signal (AQP-6): inhibitor

Compound: O=C(Nc1nncs1)c1cccnc1 [TGN-020, 2-(nicotinamide)-1,3,4-thiadiazole]
edema and infarct size (AQP-4 [3]): reduce edema and infarct size
